Patent publication EP2292587A1, “PHARMACEUTICAL COMPOSITION FOR INHIBITING THE TRANSCRIPTION FACTOR INDUCIBLE BY HYPOXIA, MODULATORS OF PATHOLOGICAL PROCESSES OF ANGIOGENESIS, ONCOGENESIS, INFLAMMATION, APOPTOSIS, AND CELLULAR THERAPY” (Fundacion De La Comunidad Valenciana Centro De …, priority 2008, dated 2009)
“Also recorded” adds a separate entry of the source.

Tests used:
VEGF and COX-2 = test: qPCR of VEGF and COX-2 in dental pulp stem cells; type: cell-based, human; settings: 0.5 µM
Text: The culture medium used was Low-Glucose DMEM supplemented with 10% fetal bovine serum. The human dental pulp mesenchymal stem line [Gronthos S, et al., "Postnatal human dental pulp stem cells (DPSCs) in vitro and in vivo" Proc Natl Acad Sci U S A, 2000 Dec 5; 97(25):13625-30.; Gronthos S et al.,." Stem cell properties of human dental pulp stem cells" J Dent Res, 2002 Aug; 81(8):531-5], obtained from human third molars from adults (19-29 years of age), was provided by the Cardioregeneration Dept. of the CIPF. The cells were seeded at a density of 2000 cells/cm^2, and when they reached a 90% confluence they were subcultured again by means of trypsinization.
Total RNA was isolated using the commercial kit RNAeasy (Qiagen) and following the manufacturer's instructions. 1 µg of total RNA of each sample was retrotranscribed using the commercial kit Reverse Transcription Reagent (Applied Biosystem). The quantitative polymerase chain reaction (qPCR) was carried out using Taqman probes and primers designed by Applied Biosystem for hsVEGF (Ref HS00173626_m1), hsCOX-2 (Ref Hs00153133_m1) and hsGAPDH (Ref HS 99999905_m1). […] The expression levels of VEGF and COX-2 were expressed as the increase of Ct with respect to the expression levels of GAPDH (constitutive expression gene): Ct (ΔCt)=Ct (VEGF or […])-Ct (GAPDH). […]

Sox2 and Oct3/4 = test: qPCR of Sox2 and Oct3/4 in H9 hESCs; type: cell-based, human; settings: 500 nM, 48 hours, hypoxia (1% O2)
Description: Culture of the H9 human embryonic cell (hESC) line: To maintain and propagate the hESC line (up to no more than 70 passes), the hESCs are cultured on a monolayer of mouse fibroblasts inactivated with mitomycin C (Sigma Aldrich, Sweden) (Thomson et al., [1998]). To study the transcriptional changes of SOx2 and Oct3/4, the undifferentiated colonies of hESCs were transferred, by mechanical dissociation, to a culture plate coated with a thin layer of Matrigel® and are cultured in the presence of conditioned medium. The conditioned medium is obtained from the culture of confluent and inactivated mouse fibroblasts, seeded on plates coated with gelatin (0.1 %; Sigma).
Using the experimental conditions described in Example 35, the procedure was the same including in this case the TaqMan probes for human Sox2, Oct3/4 and GAPDH (Sox2: Hs01053049_s1; Oct3/4:Hs01895061_u1; GAPDH: Hs99999905_m1). […] The expression levels of both messenger RNAs are induced under hypoxic conditions versus normoxic conditions (high oxygen culture conditions ~ 20% O2),

ATR = test: activation kinetics of ATR (Western blot), HCT116/p53-/-; type: cell-based, human; settings: 0.5 µM, after 1 hour
Text: To determine the degree of involvement of p53 in the possible effects caused by FM19G11, a HCT116 colon cancer cell line with expression of p53 and the same HCT116 line in which p53 was inactivated by homologous recombination were used (Bunz, F, Dutriaux, A, Lengauer, C, Waldman, T, Zhou, S, Brown, JP et al., (1998) Requirement for p53 and p21 to sustain G2 arrest after DNA damage. Science 282: 1497-501; Bunz, F, Hwang, PM, Torrance, C, Waldman, T, Zhang, Y, Dillehay, L et al., (1999) Disruption of p53 in human cancer cells alters the responses to therapeutic agents. J Clin Invest 104: 263-9.). The HCT116/p53^+/+ and HCT116/p53^-/- cells were exposed to FM19G11 (0.5 µM) at different times, the phosphorylation (activation) pattern of the ATR protein and of p53 which can be phosphorylated by ATR (Tibbetts, RS, Brumbaugh, KM, Williams, JM, Sarkaria, JN, Cliby, WA, Shieh, SY et al., (1999) A role for ATR in the DNA damage-induced phosphorylation of p53. Genes Dev 13: 152-7.), in p53-proficient HCT116 cells, as well as ATR in p53-deficient cells being analyzed (Figure 23). […] This quick activation of ATR coincides with that of p53 in HCT116/p53^+/+ cells after 1 hour of treatment with FM19G11 (0.5 µM), but the activation of p53 remains virtually on the expression of cells without drug, for the different times analyzed.

MLH1 and MSH6 = test: Western blot of mismatch repair proteins and acetyllysine in C17.2 neural stem cells; type: cell-based, mouse; settings: 500 nM; for expression of the repair proteins (MMRs: MLH1, MSH6): normoxia or hypoxia
Text: According to the results obtained, the C17.2 neural stem cell subjected to hypoxia experienced repression in the DNA repair (mismatch repair, MMR) system. […] The monoclonal anti MLH1 and MSH6 antibodies were used in the analysis, Nx referring to normoxia and Hx to hypoxia.
The monoclonal antibodies anti-acetyllysine, anti-MLH1 and MSH6 as well as against beta-actin used as a loading control were used in the analysis; wherein Nx refers to Normoxia and Hx to hypoxia.

Cc1ccc(C(=O)COC(=O)c2cccc(NC(=O)c3ccc([N+](=O)[O-])cc3[N+](=O)[O-])c2)cc1 [FM19G11, 2-oxo-2-(p-tolyl)ethyl 3-((2,4-dinitro)benzamido)benzoate]
increase of both VEGF and COX-2 (mRNA) (VEGF and COX-2; hypoxic conditions, 6 and 18 hours): inhibited | expression levels of VEGF and COX-2 (VEGF and COX-2; normoxic conditions): did not cause any effect | expression of both Sox2 and Oct3/4 (mRNA) (Sox2 and Oct3/4): significantly inhibits | phosphorylation of ATR (ATR): quick increase | overall degree of acetylation of different proteins (anti-acetyllysine) (MLH1 and MSH6): increases the overall degree of acetylation | expression of the repair proteins (MMRs: MLH1, MSH6) (MLH1 and MSH6): capable of recovering the expression of the MMRs more effectively than TSA; also recorded: recovered | expression of the repair proteins (MMRs: MLH1, MSH6) (MLH1 and MSH6; listed as 19G11): capable of reestablishing the expression
